Source: US20070042937A1, “Inhibitors of 2-oxoglutarate dioxygenase as gamma globin inducers” (FibroGen, Inc., priority 2003, published 2007)
Like-named read-outs stand apart in the source and are kept apart here.

Legend:
[1] = system: CD34+ human bone marrow progenitor cells; settings: for increase in HbF expression: CD34+ progenitor cell cultures, single assay, single cultures, FIG. 6; for increase in HbF expression over untreated controls: added to both Phases I and II; for increase in HbF expression as assessed by MFI: compound alone, only during Phase II; for increase in HbF synthesis compared to vehicle controls: added during EPO-dependent Phase II, FIG. 3A
[2] = system: CD34+ human bone marrow progenitor cells; settings: FIG. 4B; for total hemoglobin in the cultures: compound alone
Protocol: Following phase I and II of the culture period, cells were harvested and approximately 1-2×10^5 cells were placed into round-bottom 96-well microtiter plates for each flow cytometry sample. The assay buffer for all washes and the diluent used for antibodies is PBS containing 0.1% BSA.
For HbF and Hb-specific immunolabeling, cells were pelleted by centrifugation at 1200 rpm for 2 minutes in a swinging bucket centrifuge (Beckman Coulter, Fullerton Calif.) with adaptors for microtiter plates, and the supernatant was aspirated. The cells were resuspended and lightly fixed in 100 ml of buffer containing 0.05% glutaraldehyde for 10 minutes, followed by addition of 100 ml of buffer and pelleting by centrifugation exactly as described above. The cells were washed two more times (for a total of 2.5 washes) before resuspension in buffer containing 1% Triton-X 100 for 5 min, to permeabilize the cells and enable penetration of antibodies. Following an additional 2.5 washes as described, cells were resuspended with 100 ml of buffer containing antibodies specific for HbF or the appropriate monoclonal isotype control (Caltag Laboratories, Burlingame Calif.), or total Hb and the matched polyclonal isotype control (BiosPacific, Emeryville Calif.).
The antibodies for HbF and isotype-matched control were directly conjugated to fluorochromes, so after antibody incubation the cells were washed as above before fixation in 1% formaldehyde, and stored at 4° C. in the dark until analysis. […] After an additional 2.5 washes, cells were fixed in 1% formaldehyde and stored at 4° C. in the dark until analysis.

K562 cells = settings: 4 days, 20 μM, FIG. 2
[3] = system: CD34+ human bone marrow progenitor cells; assay: Percent HbF-positive cells (F-cells) in CD34+ bone marrow progenitor cell cultures by flow cytometry; settings: for increase in F-cells over untreated cultures / increase in F-cells over untreated cultures, in combination with HU: CD34+ cells, only during Phase II, FIG. 3B; for increase in F-cells over untreated cultures, in combination with HU: in combination with 5 μM HU
γ-globin = γ-globin mRNA expression in K562 cells by quantitative PCR, normalized to 18S rRNA; assay type: cell-based, human; settings: FIG. 1A
Protocol: For studies utilizing the human erythroleukemia K562 cell line (ATCC), cells were grown and cultured in complete medium (RPMI 1640, 10% fetal calf serum (FCS), 100 U/ml penicillin and 0.1 mg/ml streptomycin) in a humidified incubator at 37° C., 95% air, 5% CO2-HPIs were titrated into duplicate cultures at dosage levels spanning more than 100-fold differences in concentration, and incubated from 24 to 96 hours prior to harvesting and quantitation of F-cells and HbF levels by flow cytometry.
Each PCR run included a standard curve and water blank. In addition, a melt curve was run after completion of each PCR run to assess the specificity of the amplification. γ-globin gene expression was normalized relative to the expression level of 18S ribosomal RNA for each sample.

CC(C)Oc1ccc2nc(C(=O)NCC(=O)O)c(O)cc2c1 [HPI-5, [(3-Hydroxy-6-isopropoxy-quinoline-2-carbonyl)-amino]-acetic acid]
increase in HbF expression [1]: 75%

O=C(O)CNC(=O)c1nc(Cl)c2ccccc2c1O [HPI-1, N-((1-chloro-4-hydroxy-isoquinoline-3-carbonyl)-amino)-acetic acid]
total hemoglobin, co-treatment with HU or butyrate ([2]; co-treatment with HPI-1 and HU or butyrate): no significant change | total hemoglobin in the cultures [2]: did not cause a general increase | HbF expression (MFI for HbF) when used together with HU ([1]; 20 μM plus HU, FIG. 5B): additive | HbF expression as measured by MFI for HbF, compared to vehicle control (DMSO) ([1]; 20 μM, triplicate, FIG. 5B): increased | increase in HbF expression over untreated controls ([1]; CD34+ cells, 10 μM): 12% | increase in HbF expression over untreated controls ([1]; CD34+ cells, 20 μM): 47% | increase in HbF expression as assessed by MFI ([1]; CD34+ cells): 36% | increase in HbF synthesis compared to negative control cultures (K562 cells): 23-52% | HbF expression (percent F-cells) when used together with HU ([3]; 20 μM plus HU, FIG. 5A): additive | HbF expression as measured by percent F-cells, compared to vehicle control (DMSO) ([3]; 20 μM, triplicate, FIG. 5A): increased | increase in F-cells over untreated cultures ([3]; compound alone): 29% | increase in F-cells over untreated cultures, in combination with HU [3]: 58% | increase in F-cells ([3]; CD34+ progenitor cells, 20 μM, FIG. 4A): 50% | F-cells, co-treatment with HU or butyrate ([3]; CD34+ progenitor cells, co-treatment with HPI-1 and HU or butyrate, FIG. 4A): additive increase

COc1ccc2c(O)c(C(=O)NCC(=O)O)nc(Cl)c2c1 [HPI-3, [(1-Chloro-4-hydroxy-7-methoxy-isoquinoline-3-carbonyl)-amino]-acetic acid]
increase in HbF expression [1]: about 10%

O=C(O)CNC(=O)c1nc2cc(Cl)ccc2cc1O [HPI-4, [(7-Chloro-3-hydroxy-quinoline-2-carbonyl)-amino]-acetic acid]
increase in HbF expression [1]: 56%

O=C(O)CNC(=O)c1ncc2cc(Br)ccc2c1O [HPI-2, [(7-Bromo-4-hydroxy-isoquinoline-3-carbonyl)-amino]-acetic acid]
increase in HbF expression over controls ([1]; CD34+ cells, added during both phases, concentration not given): 40% | increase in HbF expression as assessed by MFI ([1]; CD34+ cells): 5% | increase in HbF expression [1]: about 10% | increase in HbF synthesis compared to negative control cultures (K562 cells): 77% | increase in F-cells over untreated cultures ([3]; compound alone): 12% | increase in F-cells over untreated cultures, in combination with HU [3]: 29%

CCCC(=O)O [butyrate, reference compound]
increase in HbF synthesis compared to vehicle controls ([1]; CD34+ cells): 85%

NC(=O)NO [HU, hydroxyurea, reference compound]
total hemoglobin in the cultures [2]: increases | increase in HbF synthesis compared to vehicle controls ([1]; CD34+ cells): 50% | F-cells ([3]; CD34+ progenitor cells, compound alone, FIG. 4A): increases

O=C(O)CNC(=O)c1ncc2cc(Sc3ccccc3)ccc2c1O [HPI-6, [(4-Hydroxy-7-phenylsulfanyl-isoquinoline-3-carbonyl)-amino}-acetic acid]
expression of the gene encoding γ-globin (γ-globin; 3 days, 0, 3, 4.5, 10, 12.5 or 20 μM): increased in a dose-dependant manner | γ-globin expression with further addition of hydroxyurea (γ-globin; 3 days, plus 100 μM HU, especially at lower concentrations): augmented
